The values below come from patent US20140275128A1, “METHOD OF PROVIDING OCULAR NEUROPROTECTION” (INOTEK PHARMACEUTICALS CORPORATION, priority 2013, published 2014).

Data set [1] has as its system retinal ganglion cells. Nature of the data set: Ischemia-induced retinal ganglion cell death in Long-Evans rats (high IOP insult, histology). The note with it: topical; for percent of RGC protected from ischemic insult (FIG. 4): two drops before 60 min ischemia at 110 mmHg, Compound A 2.5% ophthalmic suspension or 0.2% brimonidine tartrate, histology at 7 days; for retinal thinning of inner retina (GCL, IPL) after high IOP (FIG. 2): versus healthy contralateral eye, 7 days. The format is in vivo. On the procedure:
Treatment groups of 10 male Long Evans rats, six to eight weeks of age, were anesthetized by i.p. injection of a combination of ketamine (80 mg/kg) and xylazine (8 mg/kg). Additional ketamine was administered as needed to maintain appropriate anesthetic depth, and body temperature was maintained by use of an isothermal pad placed under the animal. Once under anesthesia, topical anesthetic (0.5% proparacaine hydrochloride, single drop) was applied to the cornea of the right eye. […] Several minutes after the second treatment, the anterior chamber of the right eye was cannulated with a 30G needle connected to an elevated reservoir of sterile Hanks balanced salt solution with a fluid level 59 inches above eye level (equivalent to a hydrostatic pressure of 110 mmHg) behind a closed stopcock. Five minutes after the second treatment (fifteen minutes after application of topical anesthetic), the stopcock was opened, and the rise in pressure was directly visualized by inflation of the globe. Animals that suffered an injury to the iris or cornea (beyond the single entry point) were excluded from the study. Sixty minutes after inducing the rise in pressure, the ischemic injury was terminated by closing the stopcock and removing the cannula. The needle entry wound was sealed with veterinary tissue adhesive and the animals allowed to recover from anesthesia before being returned to housing.
Seven days after ischemic injury animals were sacrificed by CO2 inhalation and globes dissected with the proximal optic nerves intact. The anterior chamber was removed, and the eyes were fixed for 30 minutes in 4% paraformaldehyde/PBS, followed by overnight incubation in 30% sucrose. Fixed eyes were trimmed of additional connective tissue and cut along a sagittal plane to generate a flat face for embedding, and the exposed retinal edge was attached to the sclera with tissue adhesive. The eye was infiltrated with increasing strengths of JB-4 embedding medium (glycol methacrylate; GMA), followed by embedding in JB-4 at 4° C. for sagittal sectioning. Optic nerves were co-embedded with their paired retina for transverse sectioning. Embedded tissues were sectioned through or near the optic nerve head at a thickness of 2 μm, and collected on slides for further analysis.
For histological analysis of retinas, sections were stained with 1% toluidine blue in absolute ethanol for 40 seconds, and cover slipped for microscopic examination. Images were captured using cellSens Dimension software on an Olympus BX61 upright microscope with a motorized stage, using a 20× objective and a resolution of 169 nm/pixel, and stitched together using the multiple image alignment procedure of the software. Five locations were chosen at random from across the retina, avoiding areas of extreme curvature or extreme histological disruption, and the thickness of the retinal layers was assessed, as follows: ganglion cells (GCL; count of large, round nuclei in layer near retinal surface in 100 μm region centered on chosen location), inner plexiform layer (IPL; distance from nuclei in ganglion cell layer to nuclei in inner nuclear layer), inner nuclear layer (INL), outer plexiform layer (OPL; distance from nuclei in INL to nuclei in outer nuclear layer), outer nuclear layer (ONL), and total retinal thickness (TR distance from retinal surface above nerve fiber layer to edge of ONL). […]

The conditions of data set [2]: cited from earlier work; for study participants who discontinued the study due to adverse events: Low-Pressure Glaucoma Treatment Study.
Data set [3] has as its system retinal ganglion cells. The note with it: nerve crush, acute and chronic ocular hypertension models; cited from earlier work.
Data set [4] concerns nerve fiber layer of the retina (RNFL). Particulars: topical 0.2% solution, 12 months, compared to timolol; cited from earlier work.
The next data set addresses T1, A2A adenosine receptor (Homo sapiens, UniProt P29274).
T1 construct: expressed in transfected cells; host or cells: CHO cells
The data set can be described thus: Adenosine A2A receptor binding, A1 > A2A selectivity. The note with it: ratio Ki A2A / Ki A1.

T1 sequence (P29274 whole entry): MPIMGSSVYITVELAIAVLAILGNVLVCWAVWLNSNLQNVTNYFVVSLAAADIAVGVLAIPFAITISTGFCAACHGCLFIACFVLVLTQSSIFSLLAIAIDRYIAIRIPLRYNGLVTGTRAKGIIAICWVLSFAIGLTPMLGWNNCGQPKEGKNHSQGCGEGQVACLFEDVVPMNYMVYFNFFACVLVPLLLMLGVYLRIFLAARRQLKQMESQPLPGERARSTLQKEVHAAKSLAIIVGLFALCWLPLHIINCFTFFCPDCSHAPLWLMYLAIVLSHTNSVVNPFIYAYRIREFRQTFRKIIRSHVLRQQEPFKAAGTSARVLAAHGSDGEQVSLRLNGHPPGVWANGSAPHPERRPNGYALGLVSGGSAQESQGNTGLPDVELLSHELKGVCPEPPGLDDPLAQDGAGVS
Description for A2A adenosine receptor: The cell suspension is then homogenized in ice-cold hypotonic buffer (5 mM Tris/HCl, 2 mM EDTA, pH 7.4) and the homogenate is spun for 10 minutes (4° C.) at 1,000 g.

`Brc1c(NC2=NCCN2)ccc2nccnc12` [brimonidine]: the “percent of RGC protected from ischemic insult (FIG. 4)” value with retinal ganglion cells [1] is “around 80%”. The “retinal thinning of inner retina (GCL, IPL) after high IOP (FIG. 2)” value in the data set on retinal ganglion cells [1] (two drops before ischemia) was “blocked”. Further, the “loss of visual field” value in data set [2] (0.2% brimonidine, mean 30.0 month follow up, low pressure glaucoma, compared to timolol control) was “slow the loss of visual field”. Further, the “study participants who discontinued the study due to adverse events” value in data set [2] is listed as 28.3%. The RGC survival entry in the data set on retinal ganglion cells [3] is “improved RGC survival”. In addition, in data set [4], the “loss in thickness of the nerve fiber layer of the retina (RNFL)” value is “reduce the loss in thickness of the nerve fiber layer of the retina”.
In the case of `CC(C)(C)NC[C@H](O)COc1nsnc1N1CCOCC1` [timolol], in data set [2], the “study participants who discontinued the study due to adverse events” value is on record as 11.4%.
As for `O=[N+]([O-])OC[C@H]1O[C@@H](n2cnc3c(NC4CCCC4)ncnc32)[C@H](O)[C@@H]1O` [Compound A, ((2R,3S,4R,5R)-5-(6-(cyclopentylamino)-9H-purin-9-yl)-3,4-dihydroxytetrahydrofuran-2-yl)methyl nitrate], the “percent of RGC protected from ischemic insult (FIG. 4)” value with retinal ganglion cells [1] is 100%. In the data set on retinal ganglion cells [1] (two drops before ischemia, relative to vehicle and brimonidine), the “percentage of protection across retinal layers (FIG. 3)” value was “greater relative to the vehicle, and slightly greater than the effects of brimonidine”. Further, in the data set on retinal ganglion cells [1] (two drops before ischemia), the “retinal thinning of inner retina (GCL, IPL) after high IOP (FIG. 2)” value is “blocked”.
On to `O=[N+]([O-])OC[C@H]1O[C@@H](n2cnc3c(NC4CCOC4)ncnc32)[C@H](O)[C@@H]1O` (stereo partly drawn) [Compound D, ((2R,3S,4R,5R)-3,4-dihydroxy-5-(6-(tetrahydrofuran-3-ylamino)-9H-purin-9-yl)tetrahydrofuran-2-yl)methyl nitrate], for which, on A2A adenosine receptor, the “A1 > A2A SELECTIVITY [KiA2(nm)/KiA1(nm)]” value was over 9434.
